Data taken from patent US5831026A, “Process for purifying factor VIII” (Pharmacia & Upjohn AB, priority 1994, dated 1998).
Read-outs that look alike come from different tables or passages of the source.

Key:
[1] = 3 mM EDTA in washing and elution liquid; harvest solution no. 2
Experimental: Conditioned mediums (containing human serum albumin) from two consecutive harvests, were clarified and buffered with NH4 Ac. Each resulting solution, with a pH of 6.8, was loaded onto a column containing SP SEPHAROSE® FF sold by Pharmacia AB of Uppsala, Sweden. This cation-exchange chromatography step was performed at about 8° C. After washing, factor VIII was eluted with a salt buffer containing 0.8M NaCl and 0.1M NH4 Ac. The washing liquid as well as the elution liquid contained 3 mM EDTA in the tests with harvest solution no. 2. Tests without EDTA present was carried out for comparison (harvest solution no. 1). […] The concentration of unbound Ca^2+ -ions was determined by an ion-selective electrode.

factor VIII = conditions: ambient temperature, vs zero-time value
Experimental: Conditioned mediums (containing human serum albumin) from four harvests being different from the previous Examples were clarified and buffered with NH4 Ac. Each resulting solution, with a pH of 6.8, was loaded onto a column containing SP SEPHAROSE® FF. This cation-exchange chromatography step was performed at about 8° C. After washing, factor VIII was eluted with a salt buffer containing 0.8M NaCl and 0.1M NH4 Ac. The washing liquid as well as the elution liquid contained 3 mM EDTA. Tests without EDTA present were carried out for comparison. The procoagulant activity of factor VIII was determined by use of a chromogenic substrate method, COATEST® Factor VIII kit (Chromogenix AB of Sweden) after storage at ambient temperature for up to 24 hours. The relative standard deviation (RSD) of the method is 7%.

With `O=C(O)CN(CCN(CC(=O)O)CC(=O)O)CC(=O)O` [EDTA, ethylenediamine tetraacetic acid] the “Unbound Ca^2+ ions” value [1] was 25 mM, the “Factor VIII activity (%) In preparation with 3 mM EDTA” value (factor VIII; harvest solution 1, S-eluate storage 0 h) was 100% and the “Factor VIII activity (%) In preparation with 3 mM EDTA” value (factor VIII; harvest solution 1, S-eluate storage 6 h) was 98%. For the same compound, the “Factor VIII activity (%) In preparation with 3 mM EDTA” value (factor VIII; harvest solution 1, S-eluate storage 24 h) was 100%, the “Factor VIII activity (%) In preparation with 3 mM EDTA” value (factor VIII; harvest solution 2, S-eluate storage 0 h) was 100% and the “Factor VIII activity (%) In preparation with 3 mM EDTA” value (factor VIII; harvest solution 2, S-eluate storage 6 h) was 101%. The “Factor VIII activity (%) In preparation with 3 mM EDTA” value (factor VIII; harvest solution 2, S-eluate storage 24 h) was 98%, the “Factor VIII activity (%) In preparation with 3 mM EDTA” value (factor VIII; harvest solution 3, S-eluate storage 0 h) was 100% and the “Factor VIII activity (%) In preparation with 3 mM EDTA” value (factor VIII; harvest solution 3, S-eluate storage 6 h) was 109%. The “Factor VIII activity (%) In preparation with 3 mM EDTA” value (factor VIII; harvest solution 3, S-eluate storage 24 h) was 109%, the “Factor VIII activity (%) In preparation with 3 mM EDTA” value (factor VIII; harvest solution 4, S-eluate storage 0 h) was 100% and the “Factor VIII activity (%) In preparation with 3 mM EDTA” value (factor VIII; harvest solution 4, S-eluate storage 6 h) was 103%. The “Factor VIII activity (%) In preparation with 3 mM EDTA” value (factor VIII; harvest solution 4, S-eluate storage 24 h) was 102%.
